Measured values as given in patent publication US9561288B2, “Combinations and modes of administration of therapeutic agents and combination therapy” (Abraxis BioScience, LLC, priority 2005, dated 2017).

Columns and labels:
VEGF-A protein = VEGF-A protein in tumor extracts by ELISA
Method: All drugs and control saline were administered i.v. in a volume of 100 μl daily for 5 days. Mice were sacrificed, tumors were harvested and tumor cellular extracts were prepared. VEGF-A protein levels in tumor extracts were determined by ELISA.

[1] = system: MDA-MB-231 human breast cancer xenografts; experiment: MDA-MB-231 xenografts: tumor growth, necrosis, hypoxia (Example 24); details: i.v. qdx5; Taxol® 10, Abraxane® 15, Doxorubicin 10 mg/kg/day
[2] = system: MCF7-R (pgp+) multidrug resistant variant
Method: (§1) Its cytotoxicity was also assessed against the NCI-60 human tumor cell line panel.

MCF7-S breast carcinoma = experiment: Cytotoxic activity in MCF7-S; assay type: cell-based, human
[3] = system: NCI-60 human tumor cell line panel; experiment: NCI-60 human tumor cell line panel; assay type: cell-based; details: NCI 60 panel
Method: as §1

[4] = system: Luciferase-expressing MDA-MB-231 human breast cancer xenografts; experiment: Luciferase-expressing MDA-MB-231 xenografts, tumor growth (Example 26); assay type: in vivo, nude (nu/nu) mice
Method: Abraxane®, either alone or in combination, was administered at 10 mg/kg/day daily for 5 days in two cycles separated by 1 week. […] Mice were monitored for tumor growth and drug toxicity. Mice were sacrificed when the mean tumor volume in the saline-treated control group reached 2000 mm^3.
Tumor growth inhibition (TGI) was calculated by comparing mean tumor volume of test groups to that of the control group at the last measurement of the control group.

Abraxane®-treated cells [5] = experiment: In vitro cellular cytotoxicity assay with VEGF-A or Avastin®; assay type: cell-based; details: Abraxane® 1 to 24 nM
Method: Cells were treated with Abraxane® in a range of concentrations (1 to 24 nM).

[6] = system: lymph node metastasis of MDA-MB-435-Luc+; experiment: MDA-MB-435-Luc+ lymph node metastasis; assay type: in vivo, ICR SCID mice; details: ABX 10 mg/kg two cycles; Avastin® 4 mg/kg
Method: Two cycles of Abraxane® treatment were administered, each for 5 consecutive days with one week of rest between cycles. […] The control group received PBS injected i.v. or i.p. […] Lymph nodes and lungs were excised, washed in PBS, and homogenized in 0.35 ml of cold CCLR buffer (Promega, Madison, Wis.) containing a protease inhibitor cocktail and PMSF (Sigma, Mo.). Cell debris was removed by centrifugation. Protein concentrations of cleared lysates were determined by Bradford assay (Bio-Rad, Hercules, Calif.). […] CCLR buffer without tissue homogenates and lymph nodes or lungs of non-tumor bearing mice were assayed for background signal and subtracted from the results. The net results were expressed as relative light units (“RLU”) normalized per mg of total lysate protein. […] This value was chosen because it was the minimal signal reproducibly detected above background in metastatic tissues, independently confirmed by immunohistochemical detection (data not shown). Differences in lymph node and lung metastases were assessed for statistical significance by Fisher's exact test using GraphPad InStat (GraphPad Inc., San Diego, Calif.) or SPSS 14.0 (SPSS, Inc., Chicago, Ill.).

[7] = system: MDA-MB-231-Luc+ lymphatic and pulmonary metastases; experiment: Lymphatic and pulmonary metastasis of well-established 231-Luc+ tumors (Example 32); assay type: in vivo, nu/nu mice; details: Abraxane® 30 mg/kg qd×5; Avastin® 4 mg/kg q2×wkly; tumors ~460 mm^3
Method: MDA-MB-231 or 231-Luc^+ cells were implanted into the MFP of 4 to 6 week old female nu/nu mice (Harlan Sprague-Delaney, Indianapolis, Ind.) by standard methods. Briefly, mice were anesthetized and 100 μl of cell suspension containing 4×10^6 cells and 50% Matrigel (Sigma, Mo.) were injected into the MFP. Every 2-3 days, perpendicular tumor diameters were measured by digital caliper and used to calculate tumor volume according to the formula: Volume=Dd^2π/6, where D=larger diameter and d=smaller diameter. […] Animal care was in accordance with institutional guidelines.
Luciferase-expressing orthotopic MDA-MB-231 (231-Luc+) xenografts were grown to well-established tumors (˜460 mm^3) and randomized to four groups of N=5, 6 or 7.
Metastases of MDA-MB-231-Luc+ tumor cells were identified by measuring luciferase activity in tissue extracts from lymph nodes and lungs, as described in Example 31 above. […] This value was chosen because it represented the minimal signal which could be reproducibly detected above background in tissues in which metastases were independently confirmed by immunohistochemical detection of human cells. The net results were expressed as relative light units (RLU) normalized per mg of total lysate protein, and are presented in FIG. 17A (lymphatic metastasis) and FIG. 17B (pulmonary metastasis).

[8] = system: pulmonary metastasis of MDA-MB-435-Luc+; experiment: MDA-MB-435-Luc+ pulmonary metastasis; assay type: in vivo, ICR SCID mice; details: ABX 10 mg/kg two cycles; Avastin® 4 mg/kg
Method: Tumor metastasis was determined by measuring luciferase activity in tissue extracts derived from 10 axillary lymph nodes (“LN”) and both lobes of the lungs. Lymph nodes and lungs were excised, washed in PBS, and homogenized in 0.35 ml of cold CCLR buffer (Promega, Madison, Wis.) containing a protease inhibitor cocktail and PMSF (Sigma, Mo.). Cell debris was removed by centrifugation. Protein concentrations of cleared lysates were determined by Bradford assay (Bio-Rad, Hercules, Calif.). Fifty μl of Luciferase Assay Reagent (Promega, Madison, Wis.) was mixed with 10 μl of cleared lysate and a 10 second average of luminescence was detected using a single tube luminometer (Berthold, Germany). […] The net results were expressed as relative light units (“RLU”) normalized per mg of total lysate protein. […] Differences in lymph node and lung metastases were assessed for statistical significance by Fisher's exact test using GraphPad InStat (GraphPad Inc., San Diego, Calif.) or SPSS 14.0 (SPSS, Inc., Chicago, Ill.).

[9] = system: MDA-MB-231-Luc+ human breast cancer xenografts; experiment: MDA-MB-231-Luc+ xenografts, one or two cycles of Abraxane® with Avastin® (Example 29); assay type: in vivo, nude (nu/nu) mice; details: for % Complete Regression: day 65
Method: One or two cycles of Abraxane® were administered. In two-cycle Abraxane® treatment, a second cycle of Abraxane® (10 mg/kg, i.v. qd×5) was administered one week after conclusion of the first cycle.

MDA-MB-435-Luc+ tumors = experiment: MDA-MB-435-Luc+ tumor growth (Example 31); assay type: in vivo, ICR SCID mice
Method: MDA-MB-435-Luc+ (“435-Luc+”) cells were implanted subcutaneously into the mammary fat pad of 4 to 6 week old female ICR SCID mice (Taconic, Hudson, N.Y.). Every 2-3 days, perpendicular tumor diameters were measured by digital caliper and used to calculate tumor volume according to the formula: volume=Dd^2π/6, where D=larger diameter and d=smaller diameter. […] Animal care was in accordance with institutional guidelines.
Two cycles of Abraxane® treatment were administered, each for 5 consecutive days with one week of rest between cycles. […] To allow maximal development of metastatic foci, mice were sacrificed when the average tumor volume in the control group reached 2000 mm^3.

Abraxane®-treated cells [10] = experiment: In vitro clonogenic assay; assay type: cell-based
Method: Cells were treated with saline control, Abraxane® alone, VEGF-A alone, Avastin® alone, Abraxane®+VEGF-A or Abraxane®+Avastin®.

[11] = system: MDA-MB-435 human breast tumor xenografts; experiment: MDA-MB-435 human tumor xenografts treated with HKP, Abraxane® or both; assay type: in vivo, mice; details: nineteen weeks; HKP 250 ug i.v. weekly x16; Abraxane® 10 mg/kg/day i.v. x5 days
Method: Methods: MDA-MB-435 human tumor xenografts were established at an average tumor volume of 100 mm^3, mice were randomized into groups of 12-13 animals and treated with HKP, Abraxane®, or HKP and Abraxane®. HKP was delivered i.v. (250 ug), once a week, for 16 weeks. Abraxane® was administered i.v., daily for 5 days at 10 mg/kg/day only for the first week of treatment. The Abraxane® dose used was substantially below its MTD (30 mg/kg/day, qd×5) to prevent the tumor from complete regression so effect of HKP could be noted.

[12] = Experiment No. 1: one cycle, Avastin® 2 mg/kg
[13] = Experiment No. 2: two cycles, Avastin® 4 mg/kg

Q: Which results are given for `COc1cccc2c1C(=O)c1c(O)c3c(c(O)c1C2=O)C[C@@](O)(C(=O)CO)C[C@@H]3O[C@H]1C[C@H](N)[C@H](O)[C@H](C)O1` [Doxorubicin]?
A: VEGF-A (VEGF-A protein; tumor extracts, i.v. qdx5): 754 ± 49 pg/mg protein; increase in VEGF-A protein levels (VEGF-A protein; vs saline control): 124%; % TGI [1]: 45%; Mean Tumor Volume [1]: 287 ± 56 mm^3

Q: Which “fold resistance MCF7-R vs MCF7-S” value [2] does the source give for `COc1cc2c(c(OC)c1OC)-c1ccc(SC)c(=O)cc1[C@@H](NC(=O)CCNC(=O)N[C@H]1CCc3cc(OC)c(OC)c(OC)c3-c3ccc(SC)c(=O)cc31)CC2` [IDN5404] here?
A: > 10 fold

Q: What about the IC50 ([2]; MCF7-R) of the same compound?
A: 0.04 ± 0.0038 µM

Q: And the IC50 (MCF7-S breast carcinoma)?
A: 0.0017 ± 0.0001 µM

Q: And the IC50 [3]?
A: < 0.01 µM

Q: With “Avastin®: anti-VEGF antibody bevacizumab” as the compound, how does the “% TGI” value ([4]; Abraxane® 10 mg/kg/day two cycles, Avastin® 4 mg/kg) read?
A: 12.56%

Q: What about the “Mean Tumor Volume” value ([4]; Abraxane® 10 mg/kg/day x5 days, two cycles, Avastin® 4 mg/kg twice a week for 6 weeks) of the same compound?
A: 2089 ± 251 mm^3

Q: And the “% Complete Regression” value ([4]; day 65, Abraxane® two cycles, Avastin® 4 mg/kg)?
A: 0%

Q: What about the “effect of addition on in vitro cytotoxicity of Abraxane®” value (Abraxane®-treated cells [5]) of the same compound?
A: increased the in vitro cytotoxicity of Abraxane®

Q: And the “Lymph node metastasis % Inhibition vs. Control” value [6]?
A: 100%

Q: What about the “lymphatic and pulmonary metastases” value [7] of the same compound?
A: failed to prevent metastasis

Q: What about the “Pulmonary metastasis % Inhibition vs. Control” value [8] of the same compound?
A: 50%

Q: What about the “Mean Tumor Volume” value ([9]; Experiment No. 1: one cycle of Abraxane® 10 mg/kg, Avastin® 2 mg/kg) of the same compound?
A: 953 ± 127 mm^3

Q: What about the “% TGI” value [9, 12] of the same compound?
A: 54.16%

Q: And the “% Complete Regression” value [9, 12]?
A: 0%

Q: And the “% TGD” value ([9]; Experiment No. 1: one cycle, Avastin® 2 mg/kg, time to 1000 mm^3 vs control)?
A: 13%

Q: What about the “Mean Tumor Volume” value ([9]; Experiment No. 2: two cycles of Abraxane® 10 mg/kg, Avastin® 4 mg/kg) of the same compound?
A: 2089 ± 251 mm^3

Q: What about the “% TGD” value [9, 13] of the same compound?
A: 7%

Q: What about the “% TGI” value [9, 13] of the same compound?
A: 12.56%

Q: And the “% Complete Regression” value [9, 13]?
A: 0%

Q: What about the “% Complete Regressions” value (MDA-MB-435-Luc+ tumors; 92 days) of the same compound?
A: 0%

Q: And the “tumor volume” value (MDA-MB-435-Luc+ tumors; ABX 10 mg/kg i.v. qd×5 two cycles, Avastin® 4 mg/kg i.p. twice a week)?
A: 792 mm^3

Q: And the “% TGI” value (MDA-MB-435-Luc+ tumors; ABX 10 mg/kg two cycles, Avastin® 4 mg/kg)?
A: 60.79%

Q: And the “number of colonies formed” value (Abraxane®-treated cells [10])?
A: slight reduction in the number of colonies formed

Q: For CNGRC-GG-d(KLAKLAK)2 [HKP], which tumor volume [11] is on record?
A: 4,372 mm^3
